# Where “and” joins values, the source holds several entries; their conditions need not be identical. Identical values can stand only once.
# System: RPS19-insufficient Lin-Kit+ cells
# Test: Erythroid differentiation (Ter119+) of Lin-Kit+ cells from tetracycline-inducible shRPS19 mice
# Type: cell-based, mouse
# Conditions: SD208 with doxycycline; 8 days; three mice; without SD208 24.3, 20.3, 18.5%; Fig. 8b
# Experimental: Cells were counted and assessed for cell surface expression of CD235. b Lin-Kit^+ hematopoietic progenitors were obtained from three mouse embryos expressing tetracycline-inducible shRNA against RPS19 at day E14.5 or three untreated mice, and thee mature RPL11^+/+ or three mature RPL11^+/lox mice treated with tamoxifen for eight weeks. […] Values were expressed as a percentage relative to untreated controls. c, d Intracellular phosphorylation of NLK at […] was determined by capillary electrophoresis using the Peggy SueTM Automated Western blotting platform. […] After counting the total cell population, the ratio of CD235^+ erythroblasts was determined by flow cytometry and number of CD235^+ erythroblasts calculated. This was expressed as a percentage of the average number of erythroid cells present in untreated healthy controls. f NLK phosphorylation was assessed by capillary electrophoresis as above. Bars represent means ± SD with individual data points overlaid. […] Statistics: two-tailed Student's t test, significant *p < 0.05. Also see Supplementary Fig. 8. Source data are provided as a Source Data file. […] RPS19-insufficiency reduced Ter119^+ erythroblasts to 24.3, 20.3, and 18.5% of controls differentiated in the absence of doxycycline.
smiles,measurement,value
Fc1ccc(Cl)cc1-c1nc(Nc2ccncc2)c2nccnc2n1 [SD208],"Ter119+ erythroblasts, % of controls differentiated without doxycycline",83.2% and 81.1% and 76.6%

# Source: paper PMC7334220, “Diamond Blackfan anemia is mediated by hyperactive Nemo-like kinase” (Nature Communications, 2020)
